{
  "source": "patent US8026231B2",
  "about": "“Aminothiolester compounds, pharmaceutical and cosmetic compositions containing same and uses thereof” (CNRS, priority 2000, dated 2011)",
  "key": {"BAF3 bcl2 cells": {"tested_on": "BAF3 bcl2 cells", "test": "Growth of BAF3 bcl2 cells (viable cell count, Trypan blue)", "format": "cell-based, murine", "details": "50% inhibition of cell growth", "procedure": "(§1) The cells used correspond to two cell lines: metastatic cells of human prostate cancer (DU145) and murine lymphoid cells transfected with the human bcl2 gene (BAF3 bcl2).\nThe procedure used for the tests on BAF3 bcl2 cells is as follows: • 10^5 cells are incubated in the various wells of a microplate in 1 ml of culture medium. After incubation for 4 hours, the test compounds are added to the wells containing the BAF3 bcl2 cells.\nFor the BAF3 bcl2 cells, the growth is measured by counting the viable cells in the presence of 0.1% Trypan blue. The control consists of thioampal, disclosed in patent application WO 98/44919.\n(§2) The IC50 concentration is the concentration corresponding to a 50% inhibition of cell growth."}, "DU145 cells [1]": {"tested_on": "DU145 cells", "test": "Growth of DU145 cells (protein and DNA assay, 72 h)", "format": "cell-based, human", "procedure": "as §1\nThe procedure used for the tests on DU145 is as follows: • 10^5 cells are incubated in the various wells of a microplate in 1 ml of culture medium.\n(§3) The compounds are added 4 hours after placing the cells in the wells.\nAfter 72 hours, the cells are removed at different times. The DU145 cells are washed twice with PBS and recovered directly with 0.1M sodium chloride.\n(§4) The effect on the growth of the DU145 cells is measured by protein assay according to the Lowry method (Lowry, O. H., Rosenbrough, N. J., Farr, A. L. and Randall, J. Biol. Chem. 193, 265-275, (1951)) and DNA assay by the Hoechst method (West, D. C., Sattar, A. and Kumar, S., Anal. Biochem. 147, 289-295, (1985)).\nas §2"}, "[2]": {"tested_on": "normal human prostate cells", "test": "Combination of two compounds of the invention on normal human prostate cells", "format": "cell-based", "details": "Homo sapiens, Prostate cell", "procedure": "(§5) 10^5 normal human prostate cells or 10^5 cancerous human prostate cells (DU145) are incubated in various wells of a microplate in 1 ml of culture medium.\nas §3\n(§6) After 72 hours, the cells are removed at different times. The DU145 cells or the normal cells are washed twice with PBS and recovered directly with 0.1M sodium chloride.\nas §4, with “DU145 cells or the normal” for “DU145”"}, "DU145 cells [3]": {"tested_on": "DU145 cells", "test": "Combination of two compounds of the invention on the growth of DU145 cells", "format": "cell-based, human", "details": "Homo sapiens, DU-145", "procedure": "as §5, §3, §6\nas §4, with “DU145 cells or the normal” for “DU145”"}, "DU145 cells [4]": {"tested_on": "DU145 cells", "test": "Combination of Example 1 and Metmetlico on the growth of DU145 cells", "format": "cell-based, human", "procedure": "The cells used correspond to metastatic cells of human prostate cancer DU145. 10^5 DU145 cells are incubated in the various wells of a microplate in 1 ml of culture medium. The test compounds are added 4 hours after placing the cells in the wells. After 72 hours, the cells are removed at different times. The cells are washed twice with PBS and recovered directly with 0.1M sodium chloride. The effect on the growth of DU145 cells is measured by protein assay according to the Lowry method (Lowry, O. H., Rosenbrough, […]. and Randall, J. Biol. Chem. 193, 265-275, (1951)) and DNA assay by the Hoechst method (West, […]. and Kumar, S., Anal. Biochem. 147, 289-295, (1985)). The test compounds are the compound of Example 1, metmetlico and a mixture thereof."}, "K562 cells": {"tested_on": "K562 cells", "test": "Growth of K562 cells (control, no MDR overexpression)", "format": "cell-based, human", "details": "increasing concentrations, 72 h, FIGS. 7 and 8", "procedure": "(§7) 10^5 cells were incubated in the various wells of a microplate in 1 ml of culture medium. These are R7 cells, on the one hand, and K562 cells, on the other hand.\n(§8) After incubating for 4 hours, the test compound (compound of Example 1 according to the invention, on the one hand, and daunorubicin, on the other hand) was added to the wells containing the cells.\n(§9) After 72 hours, the cells were collected at different times.\n(§10) The growth of the cells was measured by counting the viable cells in the presence of 0.1% Trypan blue.\n(§11) FIGS. 7 and 8 respectively represent the percentage inhibition (I %) by daunorubicin and the compound of Example 1 on the growth of the R7 and K562 cells, obtained at increasing concentrations C. The results obtained with the K562 cells are symbolized by ♦ and those obtained with the R7 cells are symbolized by ▴."}, "R7 cells": {"tested_on": "R7 cells", "test": "Growth of R7 cells which overexpress the MDR gene", "format": "cell-based", "details": "increasing concentrations, 72 h, FIGS. 7 and 8", "procedure": "as §7, §8, §9, §10, §11"}, "[5]": {"details": "Homo sapiens, DU-145, 50% inhibition of cell growth"}},
  "data": [
    {"smiles": "CCCN(CCC)C(C)(C)C#CC(=O)SC", "note": "[Example 3, S-methyl 4-di-n-propylamino-4-methyl-2-pentynethioate]", "values": [
      {"measurement": "IC50", "setting": "BAF3 bcl2 cells; Mus musculus", "result": 2.7, "unit": "µM"},
      {"measurement": "IC50", "setting": "DU145 cells [1]; [5]", "result": 8, "unit": "µM"}
    ]},
    {"smiles": "CSC(=O)C#CC(C)(C)N1CCCC1", "note": "[Example 4, S-methyl 4-methyl-4-pyrrodin-1-yl-2-pentynethioate]", "values": [
      {"measurement": "IC50", "setting": "BAF3 bcl2 cells", "result": 2.7, "unit": "µM"},
      {"measurement": "IC50", "setting": "DU145 cells [1]; 50% inhibition of cell growth", "result": 7.2, "unit": "µM"}
    ]},
    {"smiles": "CSC(=O)C#CC(C)(C)N1CCOCC1", "note": "[Example 5, S-methyl 4-methyl-4-morpholin-4-yl-2-pentynethioate]", "values": [
      {"measurement": "IC50", "setting": "BAF3 bcl2 cells; Mus musculus", "result": 12, "unit": "µM"},
      {"measurement": "IC50", "setting": "DU145 cells [1]; [5]", "result": 8.8, "unit": "µM"},
      {"measurement": "inhibition at 1 µM", "setting": "[2]; 1 μM", "result": 0, "unit": "%"},
      {"measurement": "inhibition at 2 µM", "setting": "[2]; 2 μM", "result": 1.3, "unit": "%"},
      {"measurement": "inhibition at 1 µM", "setting": "DU145 cells [3]; 1 μM", "result": 14.3, "unit": "%"},
      {"measurement": "inhibition at 2 µM", "setting": "DU145 cells [3]; 2 μM", "result": 25.2, "unit": "%"}
    ]},
    {"smiles": "CSCCC(=O)SCCC(CCCCC(=O)OCC[N+](C)(C)C)SC(=O)CCSC.[I-]", "note": "(stereo not drawn) [Metmetlico, 2′-(trimethylammonium)ethyl 6S,8S-bis(3-methyl-thiopropanoyl)octanoate iodide, reference compound]", "values": [
      {"measurement": "% Inhibition of growth of the DU145 cells", "setting": "DU145 cells [4]; 25 μM", "result": 0, "unit": "%"},
      {"measurement": "% Inhibition of growth of the DU145 cells", "setting": "DU145 cells [4]; 50 μM", "result": 0, "unit": "%"}
    ]},
    {"smiles": "COc1cccc2c1C(=O)c1c(O)c3c(c(O)c1C2=O)C[C@@](O)(C(C)=O)C[C@@H]3O[C@H]1C[C@H](N)[C@H](O)[C@H](C)O1", "note": "[daunorubicin, reference compound]", "values": [
      {"measurement": "Inhibition of the growth of the K562 cells", "setting": "K562 cells", "result": "inhibits the growth of the K562 cells"},
      {"measurement": "Inhibition of the growth of the R7 cells", "setting": "R7 cells", "result": "no inhibitory effect on the growth of the R7 cells"}
    ]}
  ]
}
